Laboratory results taken from ChEMBL document CHEMBL5058649, “Data for DCP probe BAY 1816032” (2022).
Activity calls are given as the source filed them. No cut-off for these calls is given here.

Assays:
[1] = molecular target: 5-hydroxytryptamine receptor 7 (Homo sapiens, UniProt P34969); test: GPCRScan assay: inhibition of 5-HT7A; set-up: radioligand conc. used [nm] 5.0 – 6.0, parental cells Stable HEK
[2] = molecular target: Acetylcholine receptor subunit alpha (Homo sapiens) (UniProt P02708); test: Inhibition of Nicotinic Acetylcholine D1, Bungarotoxin at 10 µM in the Eurofins-Panlabs radioligand binding assay (Eurofins_assay_258700); details: Compound concentration 10.0 uM
[3] = molecular target: Tyrosine-protein kinase Lck (Homo sapiens) (UniProt P06239); test: Inhibition of Protein Tyrosine Kinase, LCK at 10 µM in the Eurofins-Panlabs enzyme assay (Eurofins_assay_176020); details: Compound concentration 10.0 uM
[4] = species on record: Homo sapiens; test: Chemokine CCR1 Eurofins-Panlabs radioligand binding assay; set-up: ligand concentration 0.1 nM; details: Compound concentration 10.0 uM
[5] = species on record: Homo sapiens; test: Glutamate, Metabotropic, mGlu5 Eurofins-Panlabs radioligand binding assay; details: Compound concentration 10.0 uM
[6] = species on record: Rattus norvegicus; test: Glutamate, NMDA, Polyamine Eurofins-Panlabs radioligand binding assay; format: protein-complex assay; set-up: ligand concentration 2 nM; details: Compound concentration 10.0 uM
[7] = molecular target: Mitotic checkpoint serine/threonine-protein kinase BUB1 (Homo sapiens, UniProt O43683); test: ePCA binding competition (equilibrium binding assay)
[8] = molecular target: Angiopoietin-1 receptor (Homo sapiens) (UniProt Q02763); test: TIE2 DiscoveRx kinase panel; details: Compound concentration 1.0 uM
Sequence of Angiopoietin-1 receptor (Homo sapiens) (Q02763 whole entry): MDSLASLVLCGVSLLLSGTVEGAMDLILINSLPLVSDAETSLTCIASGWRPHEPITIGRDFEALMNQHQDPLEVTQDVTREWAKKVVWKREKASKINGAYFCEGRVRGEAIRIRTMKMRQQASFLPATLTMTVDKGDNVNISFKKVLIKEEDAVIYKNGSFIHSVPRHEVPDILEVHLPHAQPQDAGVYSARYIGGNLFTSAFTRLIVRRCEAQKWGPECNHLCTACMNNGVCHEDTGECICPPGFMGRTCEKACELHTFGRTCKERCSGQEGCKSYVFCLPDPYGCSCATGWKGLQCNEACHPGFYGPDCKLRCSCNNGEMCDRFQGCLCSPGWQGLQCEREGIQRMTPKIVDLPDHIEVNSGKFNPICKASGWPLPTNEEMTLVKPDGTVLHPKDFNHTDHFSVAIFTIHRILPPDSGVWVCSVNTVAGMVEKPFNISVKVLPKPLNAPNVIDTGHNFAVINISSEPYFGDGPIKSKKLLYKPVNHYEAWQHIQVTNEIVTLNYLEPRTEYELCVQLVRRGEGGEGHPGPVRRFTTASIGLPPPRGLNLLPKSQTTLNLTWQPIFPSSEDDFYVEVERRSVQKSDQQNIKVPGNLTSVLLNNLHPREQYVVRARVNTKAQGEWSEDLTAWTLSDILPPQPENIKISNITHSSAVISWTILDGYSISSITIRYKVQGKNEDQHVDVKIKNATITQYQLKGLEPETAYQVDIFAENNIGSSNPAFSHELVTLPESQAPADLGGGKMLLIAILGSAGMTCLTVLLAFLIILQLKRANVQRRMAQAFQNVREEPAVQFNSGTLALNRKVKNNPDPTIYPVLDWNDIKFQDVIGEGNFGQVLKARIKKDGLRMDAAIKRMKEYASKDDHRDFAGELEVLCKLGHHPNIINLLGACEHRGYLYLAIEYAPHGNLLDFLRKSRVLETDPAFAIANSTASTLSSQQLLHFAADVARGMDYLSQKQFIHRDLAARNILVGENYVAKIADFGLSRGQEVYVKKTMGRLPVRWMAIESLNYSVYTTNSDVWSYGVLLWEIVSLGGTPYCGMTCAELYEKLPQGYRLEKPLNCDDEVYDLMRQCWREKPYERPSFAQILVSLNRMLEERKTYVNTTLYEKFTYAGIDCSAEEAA

[9] = molecular target: Citron Rho-interacting kinase (Homo sapiens) (UniProt O14578); test: CIT DiscoveRx kinase panel; details: Compound concentration 1.0 uM
[10] = molecular target: Tyrosine-protein kinase receptor TYRO3 (Homo sapiens) (UniProt Q06418); test: TYRO3 DiscoveRx kinase panel; details: Compound concentration 1.0 uM
[11] = molecular target: Calcium/calmodulin-dependent protein kinase type II subunit alpha (Homo sapiens) (UniProt Q9UQM7); test: CAMK2A DiscoveRx kinase panel; details: Compound concentration 1.0 uM
[12] = molecular target: Dual specificity protein kinase TTK (Homo sapiens) (UniProt P33981); test: TTK DiscoveRx kinase panel; details: Compound concentration 1.0 uM
[13] = molecular target: Microtubule-associated serine/threonine-protein kinase 1 (Homo sapiens) (UniProt Q9Y2H9); test: MAST1 DiscoveRx kinase panel; details: Compound concentration 1.0 uM
[14] = molecular target: Calcium/calmodulin-dependent protein kinase type IV (Homo sapiens) (UniProt Q16566); test: CAMK4 DiscoveRx kinase panel; details: Compound concentration 1.0 uM
[15] = molecular target: Cyclin-dependent kinase 19 (Homo sapiens) (UniProt Q9BWU1); test: CDK11 DiscoveRx kinase panel; details: Compound concentration 1.0 uM
[16] = molecular target: Casein kinase I isoform gamma-2 (Homo sapiens) (UniProt P78368); test: CSNK1G2 DiscoveRx kinase panel; details: Compound concentration 1.0 uM
Sequence of Casein kinase I isoform gamma-2 (Homo sapiens) (P78368 whole entry, looked up, canonical isoform): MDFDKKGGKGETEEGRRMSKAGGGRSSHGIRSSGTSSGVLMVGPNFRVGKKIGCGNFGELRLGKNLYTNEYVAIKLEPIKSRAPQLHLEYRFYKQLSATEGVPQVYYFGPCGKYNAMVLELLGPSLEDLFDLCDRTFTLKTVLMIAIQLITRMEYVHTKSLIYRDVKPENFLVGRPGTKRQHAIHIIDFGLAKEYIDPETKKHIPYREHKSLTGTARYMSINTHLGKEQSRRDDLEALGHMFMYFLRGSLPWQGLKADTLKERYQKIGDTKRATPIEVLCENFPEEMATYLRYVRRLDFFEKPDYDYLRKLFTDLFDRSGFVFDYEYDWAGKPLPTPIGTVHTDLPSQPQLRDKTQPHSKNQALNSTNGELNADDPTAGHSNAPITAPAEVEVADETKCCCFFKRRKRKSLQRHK

[17] = molecular target: Serine/threonine-protein kinase PAK 6 (Homo sapiens) (UniProt Q9NQU5); test: PAK6 DiscoveRx kinase panel; details: Compound concentration 1.0 uM
[18] = molecular target: Tyrosine-protein kinase Fes/Fps (Homo sapiens) (UniProt P07332); test: FES DiscoveRx kinase panel; details: Compound concentration 1.0 uM
[19] = molecular target: Protein kinase C delta type (Homo sapiens) (UniProt Q05655); test: PRKCD DiscoveRx kinase panel; details: Compound concentration 1.0 uM
[20] = molecular target: Serine/threonine-protein kinase WNK1 (Homo sapiens) (UniProt Q9H4A3); test: WNK1 DiscoveRx kinase panel; details: Compound concentration 1.0 uM
[21] = molecular target: LIM domain kinase 1 (Homo sapiens) (UniProt P53667); test: LIMK1 DiscoveRx kinase panel; details: Compound concentration 1.0 uM
[22] = molecular target: Eukaryotic translation initiation factor 2-alpha kinase 1 (Homo sapiens) (UniProt Q9BQI3); test: EIF2AK1 DiscoveRx kinase panel; details: Compound concentration 1.0 uM
[23] = molecular target: Mitogen-activated protein kinase 3 (Homo sapiens) (UniProt P27361); test: ERK1 DiscoveRx kinase panel; details: Compound concentration 1.0 uM
[24] = molecular target: Serine/threonine-protein kinase RIO3 (Homo sapiens) (UniProt O14730); test: RIOK3 DiscoveRx kinase panel; details: Compound concentration 1.0 uM
[25] = molecular target: SRSF protein kinase 1 (Homo sapiens) (UniProt Q96SB4); test: SRPK1 DiscoveRx kinase panel; details: Compound concentration 1.0 uM
[26] = molecular target: Serine/threonine-protein kinase BRSK1 (Homo sapiens) (UniProt Q8TDC3); test: BRSK1 DiscoveRx kinase panel; details: Compound concentration 1.0 uM
[27] = molecular target: Mitogen-activated protein kinase 6 (Homo sapiens) (UniProt Q16659); test: ERK3 DiscoveRx kinase panel; details: Compound concentration 1.0 uM
[28] = molecular target: Activin receptor type-2B (Homo sapiens) (UniProt Q13705); test: ACVR2B DiscoveRx kinase panel; details: Compound concentration 1.0 uM
[29] = molecular target: Mitogen-activated protein kinase 4 (Homo sapiens) (UniProt P31152); test: ERK4 DiscoveRx kinase panel; details: Compound concentration 1.0 uM
[30] = molecular target: Serine/threonine-protein kinase N2 (Homo sapiens) (UniProt Q16513); test: PKN2 DiscoveRx kinase panel; details: Compound concentration 1.0 uM
Sequence of Serine/threonine-protein kinase N2 (Homo sapiens) (Q16513 whole entry, looked up): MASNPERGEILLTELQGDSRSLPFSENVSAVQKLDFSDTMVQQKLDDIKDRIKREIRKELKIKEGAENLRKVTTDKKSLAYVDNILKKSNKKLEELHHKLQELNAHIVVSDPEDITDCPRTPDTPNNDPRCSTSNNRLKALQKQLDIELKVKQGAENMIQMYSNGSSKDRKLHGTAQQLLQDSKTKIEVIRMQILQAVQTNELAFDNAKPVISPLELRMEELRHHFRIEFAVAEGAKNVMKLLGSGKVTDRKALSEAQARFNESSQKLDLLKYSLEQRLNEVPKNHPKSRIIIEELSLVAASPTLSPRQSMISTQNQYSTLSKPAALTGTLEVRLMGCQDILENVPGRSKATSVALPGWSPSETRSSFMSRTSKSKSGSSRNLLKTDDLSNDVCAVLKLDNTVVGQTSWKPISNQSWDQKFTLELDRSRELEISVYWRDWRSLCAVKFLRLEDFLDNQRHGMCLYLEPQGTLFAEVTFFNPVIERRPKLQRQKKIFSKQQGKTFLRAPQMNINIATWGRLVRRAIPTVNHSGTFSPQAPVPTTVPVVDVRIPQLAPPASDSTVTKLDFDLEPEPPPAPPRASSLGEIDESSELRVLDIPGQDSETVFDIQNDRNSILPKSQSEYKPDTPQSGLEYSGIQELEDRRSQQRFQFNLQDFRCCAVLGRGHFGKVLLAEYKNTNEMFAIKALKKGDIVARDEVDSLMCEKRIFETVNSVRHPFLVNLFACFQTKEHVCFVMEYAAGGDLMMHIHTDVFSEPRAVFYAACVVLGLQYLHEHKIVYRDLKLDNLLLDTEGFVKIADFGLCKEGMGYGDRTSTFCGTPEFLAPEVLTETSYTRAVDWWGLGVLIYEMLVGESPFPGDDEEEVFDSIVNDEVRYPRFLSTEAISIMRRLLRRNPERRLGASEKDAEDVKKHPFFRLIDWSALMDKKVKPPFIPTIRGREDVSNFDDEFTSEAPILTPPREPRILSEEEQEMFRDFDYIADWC

[31] = molecular target: Activin receptor type-1 (Homo sapiens) (UniProt Q04771); test: ACVR1 DiscoveRx kinase panel; details: Compound concentration 1.0 uM
Sequence of Activin receptor type-1 (Homo sapiens) (Q04771 whole entry): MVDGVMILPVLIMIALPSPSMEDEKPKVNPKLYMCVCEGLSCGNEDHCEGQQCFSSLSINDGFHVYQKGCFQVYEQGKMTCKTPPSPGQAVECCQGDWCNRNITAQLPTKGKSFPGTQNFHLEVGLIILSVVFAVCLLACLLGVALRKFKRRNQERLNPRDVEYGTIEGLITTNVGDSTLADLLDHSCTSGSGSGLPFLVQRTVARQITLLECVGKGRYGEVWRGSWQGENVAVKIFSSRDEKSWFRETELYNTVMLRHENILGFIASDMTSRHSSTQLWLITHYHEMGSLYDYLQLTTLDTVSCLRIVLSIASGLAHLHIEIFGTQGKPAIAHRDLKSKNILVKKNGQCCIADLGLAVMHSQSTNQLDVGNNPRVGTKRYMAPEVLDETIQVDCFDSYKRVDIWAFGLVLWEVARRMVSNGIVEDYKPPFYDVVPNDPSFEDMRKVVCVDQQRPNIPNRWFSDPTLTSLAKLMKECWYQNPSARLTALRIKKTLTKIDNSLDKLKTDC

[32] = molecular target: Aurora kinase B (Homo sapiens) (UniProt Q96GD4); test: AURKB DiscoveRx kinase panel; details: Compound concentration 1.0 uM
[33] = molecular target: Aurora kinase C (Homo sapiens) (UniProt Q9UQB9); test: AURKC DiscoveRx kinase panel; details: Compound concentration 1.0 uM
[34] = molecular target: Casein kinase I isoform epsilon (Homo sapiens) (UniProt P49674); test: CSNK1E DiscoveRx kinase panel; details: Compound concentration 1.0 uM
[35] = molecular target: Casein kinase I isoform gamma-3 (Homo sapiens) (UniProt Q9Y6M4); test: CSNK1G3 DiscoveRx kinase panel; details: Compound concentration 1.0 uM
[36] = molecular target: Inhibitor of nuclear factor kappa-B kinase subunit beta (Homo sapiens) (UniProt O14920); test: IKK-beta DiscoveRx kinase panel; details: Compound concentration 1.0 uM
[37] = molecular target: Interleukin-1 receptor-associated kinase 1 (Homo sapiens) (UniProt P51617); test: IRAK1 DiscoveRx kinase panel; details: Compound concentration 1.0 uM
[38] = molecular target: Dual specificity mitogen-activated protein kinase kinase 3 (Homo sapiens) (UniProt P46734); test: MEK3 DiscoveRx kinase panel; details: Compound concentration 1.0 uM
[39] = molecular target: Myosin light chain kinase, smooth muscle (Homo sapiens) (UniProt Q15746); test: MYLK DiscoveRx kinase panel; details: Compound concentration 1.0 uM
[40] = molecular target: Serine/threonine-protein kinase PAK 1 (Homo sapiens) (UniProt Q13153); test: PAK1 DiscoveRx kinase panel; details: Compound concentration 1.0 uM
[41] = molecular target: Serine/threonine-protein kinase SIK3 (Homo sapiens) (UniProt Q9Y2K2); test: QSK DiscoveRx kinase panel; details: Compound concentration 1.0 uM
Sequence of Serine/threonine-protein kinase SIK3 (Homo sapiens) (Q9Y2K2 whole entry, looked up): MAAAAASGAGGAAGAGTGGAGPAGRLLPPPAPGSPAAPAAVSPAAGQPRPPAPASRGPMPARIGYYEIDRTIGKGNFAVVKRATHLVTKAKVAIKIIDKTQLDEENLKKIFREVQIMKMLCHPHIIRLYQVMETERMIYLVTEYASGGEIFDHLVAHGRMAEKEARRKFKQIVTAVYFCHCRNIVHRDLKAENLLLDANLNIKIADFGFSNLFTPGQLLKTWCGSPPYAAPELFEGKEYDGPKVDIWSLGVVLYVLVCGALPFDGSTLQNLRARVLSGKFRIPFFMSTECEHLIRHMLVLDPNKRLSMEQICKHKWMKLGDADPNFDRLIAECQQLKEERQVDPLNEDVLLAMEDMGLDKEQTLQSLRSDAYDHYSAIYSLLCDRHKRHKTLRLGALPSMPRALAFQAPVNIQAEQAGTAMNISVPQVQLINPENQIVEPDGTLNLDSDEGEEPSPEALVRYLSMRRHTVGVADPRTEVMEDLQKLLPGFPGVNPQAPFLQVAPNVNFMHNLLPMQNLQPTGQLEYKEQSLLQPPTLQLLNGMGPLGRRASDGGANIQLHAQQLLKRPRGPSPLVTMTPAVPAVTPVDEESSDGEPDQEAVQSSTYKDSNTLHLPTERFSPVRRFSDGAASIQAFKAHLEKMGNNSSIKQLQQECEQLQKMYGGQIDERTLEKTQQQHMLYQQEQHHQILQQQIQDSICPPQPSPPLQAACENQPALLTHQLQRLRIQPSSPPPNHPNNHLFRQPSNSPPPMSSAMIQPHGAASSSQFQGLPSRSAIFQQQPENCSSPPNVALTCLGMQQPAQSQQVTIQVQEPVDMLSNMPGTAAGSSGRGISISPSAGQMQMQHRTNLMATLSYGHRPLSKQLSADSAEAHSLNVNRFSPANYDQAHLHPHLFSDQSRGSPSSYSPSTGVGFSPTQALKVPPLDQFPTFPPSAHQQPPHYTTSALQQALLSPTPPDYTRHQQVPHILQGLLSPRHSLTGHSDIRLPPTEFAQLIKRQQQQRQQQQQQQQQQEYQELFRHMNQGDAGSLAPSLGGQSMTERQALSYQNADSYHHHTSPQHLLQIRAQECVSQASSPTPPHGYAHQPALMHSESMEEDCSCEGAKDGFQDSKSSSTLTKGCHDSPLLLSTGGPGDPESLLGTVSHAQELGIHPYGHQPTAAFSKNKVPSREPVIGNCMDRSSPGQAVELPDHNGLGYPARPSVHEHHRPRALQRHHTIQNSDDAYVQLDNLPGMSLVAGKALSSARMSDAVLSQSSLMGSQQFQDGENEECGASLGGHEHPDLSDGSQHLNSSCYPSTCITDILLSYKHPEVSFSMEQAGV

[42] = molecular target: Ribosomal protein S6 kinase alpha-6 (Homo sapiens) (UniProt Q9UK32); test: RSK4(Kin.Dom.2-C-terminal) DiscoveRx kinase panel; details: Compound concentration 1.0 uM
[43] = molecular target: Serine/threonine-protein kinase SIK2 (Homo sapiens) (UniProt Q9H0K1); test: SIK2 DiscoveRx kinase panel; details: Compound concentration 1.0 uM
[44] = molecular target: Gastrin/cholecystokinin type B receptor (Homo sapiens) (UniProt P32239); test: Cholecystokinin CCK2 (CCKB) Eurofins-Panlabs radioligand binding assay; details: Compound concentration 10.0 uM
[45] = molecular target: B2 bradykinin receptor (Homo sapiens) (UniProt P30411); test: Bradykinin B2 Eurofins-Panlabs radioligand binding assay; details: Compound concentration 10.0 uM
[46] = molecular target: Sigma non-opioid intracellular receptor 1 (Homo sapiens, UniProt Q99720); details: Compound concentration 10.0 uM
Sequence of Sigma non-opioid intracellular receptor 1 (Q99720 whole entry): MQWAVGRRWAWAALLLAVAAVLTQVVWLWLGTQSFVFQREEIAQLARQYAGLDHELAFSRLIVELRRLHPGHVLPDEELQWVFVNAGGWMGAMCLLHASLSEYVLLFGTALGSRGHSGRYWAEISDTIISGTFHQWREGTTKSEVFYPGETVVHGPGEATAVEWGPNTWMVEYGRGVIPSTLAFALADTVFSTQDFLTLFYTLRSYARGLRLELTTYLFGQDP

[47] = molecular target: Adenosine receptor A1 (Homo sapiens) (UniProt P30542); details: Compound concentration 10.0 uM
[48] = molecular target: Delta-type opioid receptor (Homo sapiens) (UniProt P41143); details: Compound concentration 10.0 uM

Sequence of 5-hydroxytryptamine receptor 7 (P34969 whole entry): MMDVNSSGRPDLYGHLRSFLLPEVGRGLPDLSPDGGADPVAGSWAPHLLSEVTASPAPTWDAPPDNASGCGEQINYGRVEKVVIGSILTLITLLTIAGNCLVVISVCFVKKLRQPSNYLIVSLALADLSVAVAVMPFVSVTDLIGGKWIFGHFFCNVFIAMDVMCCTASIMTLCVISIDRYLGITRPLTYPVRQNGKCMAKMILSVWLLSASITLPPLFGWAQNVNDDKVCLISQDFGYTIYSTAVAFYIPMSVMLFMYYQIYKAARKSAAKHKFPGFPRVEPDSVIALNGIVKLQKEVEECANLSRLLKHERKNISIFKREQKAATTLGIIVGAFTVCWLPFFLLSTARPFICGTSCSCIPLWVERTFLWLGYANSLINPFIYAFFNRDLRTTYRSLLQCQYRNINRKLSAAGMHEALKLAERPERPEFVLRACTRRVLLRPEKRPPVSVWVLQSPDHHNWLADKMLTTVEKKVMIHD

With `COc1cnccc1Nc1nc(-c2nn(Cc3c(F)cc(OCCO)cc3F)c3ccccc23)ncc1OC` the Ki [1] was > 10 µM, the pKi [1] was < 5 and the inhibition [2] was 14%. The inhibition [3] was 6%, the inhibition [4] was -4% and the inhibition [5] was 17%. The inhibition [6] was 0%, the IC50 [7] was 0.001 µM (active) and the residual activity [8] was 41%. The residual activity [9] was 52%, the residual activity [10] was 56% and the residual activity [11] was 58%. For the same compound, the residual activity [12] was 62%, the residual activity [13] was 63% and the residual activity [14] was 68%. For the same compound, the residual activity [15] was 78%, the residual activity [16] was 78% and the residual activity [17] was 79%. For the same compound, the residual activity [18] was 80%, the residual activity [19] was 80% and the residual activity [20] was 85%. For the same compound, the residual activity [21] was 86%, the residual activity [22] was 87% and the residual activity [23] was 88%. It also gave a residual activity [24] of 90%, a residual activity [25] of 90% and a residual activity [26] of 93%. It also gave a residual activity [27] of 93%, a residual activity [28] of 94% and a residual activity [29] of 96%. The residual activity [30] was 97%, the residual activity [31] was 98% and the residual activity [32] was 100%. For the same compound, the residual activity [33] was 100%, the residual activity [34] was 100% and the residual activity [35] was 100%. The residual activity [36] was 100%, the residual activity [37] was 100% and the residual activity [38] was 100%. It also gave a residual activity [39] of 100%, a residual activity [40] of 100% and a residual activity [41] of 100%. For the same compound, the residual activity [42] was 100%, the residual activity [43] was 100% and the inhibition [44] was 1%. For the same compound, the inhibition [45] was 0%, the inhibition [46] was 4.34% and the inhibition [47] was 9%. The inhibition [48] was -6%.
